Data: patent publication US10016409B2, “Method for improving interstitial flow” (priority 2012, dated 2018)
Structures can show the parent of a compound that is named as a salt.

Tests used:
MCI patients [1] = details: cited from earlier work; for effectiveness on MCI patients: clinical trials, Guidelines for Management of Dementia; for conversion from MCI to Alzheimer: Non-patent Document 3
MCI patients [2] = assay: Clinical record analysis, MMSE change in MCI patients (MMSE 22 to 26) under donepezil hydrochloride oral administration; format: in vivo, human; details: MCI patients MMSE 22-26
Description: Patients subjected to oral administration of donepezil hydrochloride, having an observation period of one or more years before the MMSE test date, and having first MMSE scores less than or equal to 26 were picked up from a clinical record. Among the patients, patients recorded to have been consecutively administered with cilostazol for 6 months or more in the observation period were classified as a donepezil hydrochloride and cilostazol combined use group (69 cases), and patients recorded to have experienced no cilostazol oral administration were classified as a donepezil hydrochloride single use group (87 cases). Cilostazol was oral-administered at a dosage of 50 to 200 mg/day in the morning and evening, and donepezil hydrochloride was administered at a dosage of 5 mg/day once in a day. Among the patients, patients with MMSE scores greater than or equal to 22 and less than or equal to 26 were extracted as an MCI patient group. Then, 36 cases (16 males and 20 females, average age: 78.4 years old) of the donepezil hydrochloride single use group (hereinafter referred to as a single use group) and 34 cases (15 males and 19 females, average age: 77.2 years old) of the donepezil hydrochloride and cilostazol combined use group (hereinafter referred to as combined use group) were found. The average dosage of cilostazol in the combined use group was 121 mg/day. […] Measurement of MMSE was conducted at least twice in the observation period, and the first and last test results were selected for analysis.

dementia patients = assay: Clinical record analysis, MMSE change in dementia patients (MMSE less than or equal to 21) under donepezil hydrochloride oral administration; format: in vivo, human; details: dementia patients MMSE less than or equal to 21
Description: Patients subjected to oral administration of donepezil hydrochloride, having an observation period of one or more years before the MMSE test date, and having first MMSE scores less than or equal to 26 were picked up from a clinical record. Among the patients, patients recorded to have been consecutively administered with cilostazol for 6 months or more in the observation period were classified as a donepezil hydrochloride and cilostazol combined use group (69 cases), and patients recorded to have experienced no cilostazol oral administration were classified as a donepezil hydrochloride single use group (87 cases). Cilostazol was oral-administered at a dosage of 50 to 200 mg/day in the morning and evening, and donepezil hydrochloride was administered at a dosage of 5 mg/day once in a day.
As a dementia patient group oral-administered with donepezil hydrochloride, patients with MMSE scores less than or equal to 21 were extracted. Then, the donepezil hydrochloride single use group (the single use group) was 51 cases (17 males and 34 females, average age: 78.2 years old) and the donepezil hydrochloride and cilostazol combined use group (the combined use group) was 35 cases (14 males and 21 females, average age: 79.3 years old). The average dosage of cilostazol in the combined use group was 139 mg/day.

## CCN(C)C(=O)Oc1cccc([C@H](C)N(C)C)c1 [rivastigmine]
MCI patients [1]
  effectiveness on MCI patients: very limited or is not present

## estrogen
MCI patients [1]; RCT, postmenopausal women of 65 years of age or more without dementia
  risk of onset of dementia or MCI: increased the risk of onset of dementia or MCI significantly

## COc1cc2c(cc1OC)C(=O)C(CC1CCN(Cc3ccccc3)CC1)C2 (stereo not drawn) [donepezil hydrochloride]
MCI patients [2]; increment or decrement of MMSE score/observation period [year], average±standard error, p=0.022 between groups
  MMSE change rate: −2.23±0.69
MCI patients [2]; per observation period [year], p=0.003
  change rate of MMSE item 1 of orientation to time: −0.85
MCI patients [2]; per observation period [year], p=0.017
  change rate of MMSE item 2 of orientation to location: −0.31
MCI patients [2]; per observation period [year], p=0.045
  change rate of MMSE item 5 of delayed recall: −0.28
Dementia patients; p=0.37
  change rate of MMSE item 5 of delayed recall: −0.15
Dementia patients; p=0.86
  change rate of MMSE item 2 of orientation to location: −0.13
Dementia patients; p=0.89
  change rate of MMSE item 1 of orientation to time: −0.16
Dementia patients; per observation period, average±standard error, p=0.72 between groups
  MMSE change rate: −0.90±037
MCI patients [1]
  conversion from MCI to Alzheimer: do not affect conversion from MCI to Alzheimer
  effectiveness on MCI patients: very limited or is not present

## CS(=O)(=O)c1ccc(C2=C(c3ccccc3)C(=O)OC2)cc1 [rofecoxib]
MCI patients [1]; guideline p. 116, Other Drugs (2)
  prophylactic effects (dementia or MCI): no prophylactic effects

## vitamin E
MCI patients [1]
  conversion from MCI to Alzheimer: do not affect conversion from MCI to Alzheimer
MCI patients [1]; RCT directed to MCI patients
  dementia prophylactic effect / prophylactic effect against conversion to Alzheimer: neither dementia prophylactic effect nor prophylactic effect against conversion to Alzheimer was obtained
